Test results reported in ChEMBL document CHEMBL6109152, “Harnessing the SPOP E3 Ubiquitin Ligase via a Bridged Proteolysis Targeting Chimera (PROTAC) Strategy for Targeted Protein Degradation” (J Med Chem, 2025).
Active and inactive are the calls of the source. The rule behind the calls is not given here.

What was measured:
HT-29 [1] = test: Effect on BRD4 long isoform mRNA level in human HT-29 cells at 1 to 10 uM incubated for 24 hrs by RT-qPCR analysis; assay type: functional, cell-based; conditions: dose 1-10 µM
[2] = molecular target: T1, Speckle-type POZ protein-Bromodomain-containing protein 4 (Homo sapiens, UniProt O60885+O43791); test: PROTAC activity at SPOP/BRD4-L in human HT-29 cells assessed as induction of BRD4 long isoform degradation at 0.5 to 5 uM incubated for 24 hrs by Western blotting analysis; assay type: cell-based; conditions: dose 0.5-5 µM
[3] = molecular target: T2, Bromodomain-containing protein 4 (Homo sapiens, UniProt O60885); test: Inhibition of BRD4 in human HT-29 cells assessed as decrease in c-MYC protein level at 5 uM measured after 16 hrs by Western blot analysis relative to control; assay type: cell-based
[4] = molecular target: T1, Speckle-type POZ protein-Bromodomain-containing protein 4; test: PROTAC activity at SPOP/BRD4-L in human HT-29 cells assessed as induction of BRD4 long isoform degradation by measuring fold change at 5 uM incubated for 24 hrs by Western blotting analysis (reference value: 1.00); assay type: cell-based
[5] = molecular target: T3, Speckle-type POZ protein-Bromodomain-containing protein 2 (Homo sapiens) (UniProt P25440+O43791); test: PROTAC activity at SPOP/BRD2 in human HT-29 cells assessed as induction of BRD2 degradation by measuring fold change at 1.25 uM incubated for 24 hrs by Western blot analysis (reference value: 1.00); assay type: cell-based
[6] = molecular target: T2, Bromodomain-containing protein 4; test: Inhibition of BRD4 in human HT-29 cells assessed as decrease in c-MYC protein level by measuring fold change at 1.25 uM incubated for 24 hrs by Western blot analysis (reference value: 1.00); assay type: cell-based
[7] = molecular target: T2, Bromodomain-containing protein 4; test: Inhibition of BRD4 in human HT-29 cells assessed as decrease in c-MYC protein level by measuring fold change at 10 uM incubated for 24 hrs by Western blot analysis (reference value: 1.00); assay type: cell-based
[8] = molecular target: T1, Speckle-type POZ protein-Bromodomain-containing protein 4; test: PROTAC activity at SPOP/BRD4-S in human HT-29 cells assessed as induction of BRD4 short isoform degradation by measuring fold change at 10 uM incubated for 24 hrs by Western blotting analysis (reference value: 1.00); assay type: cell-based
[9] = molecular target: T1, Speckle-type POZ protein-Bromodomain-containing protein 4; test: PROTAC activity at SPOP/BRD4-S in human MDA-MB-231 cells assessed as induction of BRD4 short isoform degradation at 0.1 to 5 uM incubated for 24 hrs by Western blotting analysis; assay type: cell-based; conditions: dose 0.1-5 µM
HT-29 [10] = test: Binding affinity to BRD4-L/GLP/SPOP in human HT-29 cells assessed as compound-BRD4-GLP-SPOP quaternary complex formation at 20 to 100 uM incubated for 1 hrs by pulldown based Western blot analysis; assay type: cell-based; conditions: dose 20-100 µM
[11] = molecular target: T4, Speckle-type POZ protein-Bromodomain-containing protein 3 (Homo sapiens) (UniProt Q15059+O43791); test: PROTAC activity at SPOP/BRD3 in human HT-29 cells assessed as induction of BRD3 degradation by measuring fold change at 10 uM incubated for 24 hrs by Western blot analysis (reference value: 1.00); assay type: cell-based
HT-29 [12] = test: Antiproliferative activity against human HT-29 cells assessed as cell growth inhibition incubated for 3 days by WST-8 reagent based assay; assay type: functional
[13] = molecular target: T1, Speckle-type POZ protein-Bromodomain-containing protein 4; test: PROTAC activity at SPOP/BRD4-S in human HT-29 cells assessed as induction of BRD4 short isoform degradation by measuring fold change at 2.5 uM incubated for 24 hrs by Western blotting analysis (reference value: 1.00); assay type: cell-based
[14] = molecular target: T4, Speckle-type POZ protein-Bromodomain-containing protein 3 (Homo sapiens); test: PROTAC activity at SPOP/BRD3 in human HT-29 cells assessed as induction of BRD3 degradation by measuring fold change at 0.156 uM incubated for 24 hrs by Western blot analysis (reference value: 1.00); assay type: cell-based
[15] = molecular target: T1, Speckle-type POZ protein-Bromodomain-containing protein 4; test: PROTAC activity at SPOP/BRD4-S in human HT-29 cells assessed as induction of BRD4 short isoform degradation at 5 uM preincubated with MS1262 for 2 hrs followed by compound addition and measured after 24 hrs by Western blot analysis; assay type: cell-based
[16] = molecular target: T3, Speckle-type POZ protein-Bromodomain-containing protein 2 (Homo sapiens); test: PROTAC activity at SPOP/BRD2 in human MDA-MB-231 cells assessed as induction of BRD2 degradation at 0.1 to 5 uM incubated for 24 hrs by Western blot analysis; assay type: cell-based; conditions: dose 0.1-5 µM
[17] = molecular target: T3, Speckle-type POZ protein-Bromodomain-containing protein 2 (Homo sapiens); test: PROTAC activity at SPOP/BRD2 in human HT-29 cells assessed as induction of BRD2 degradation by measuring fold change at 10 uM incubated for 24 hrs by Western blot analysis (reference value: 1.00); assay type: cell-based
[18] = molecular target: T1, Speckle-type POZ protein-Bromodomain-containing protein 4; test: PROTAC activity at SPOP/BRD4-L in human HT-29 cells assessed as induction of BRD4 long isoform degradation by measuring fold change at 2.5 uM incubated for 24 hrs by Western blotting analysis (reference value: 1.00); assay type: cell-based
[19] = molecular target: T1, Speckle-type POZ protein-Bromodomain-containing protein 4; test: PROTAC activity at SPOP/BRD4-S in human HT-29 cells assessed as induction of BRD4 short isoform degradation at 5 uM incubated for 24 hrs by Western blotting analysis relative to control; assay type: cell-based
[20] = molecular target: T3, Speckle-type POZ protein-Bromodomain-containing protein 2 (Homo sapiens); test: PROTAC activity at SPOP/BRD2 in human HT-29 cells assessed as induction of BRD2 degradation by measuring fold change at 5 uM incubated for 24 hrs by Western blot analysis (reference value: 1.00); assay type: cell-based
[21] = molecular target: T2, Bromodomain-containing protein 4; test: Inhibition of BRD4 in human HT-29 cells assessed as decrease in c-MYC protein level at 5 uM measured after 2 hrs by Western blot analysis; assay type: cell-based
[22] = molecular target: T1, Speckle-type POZ protein-Bromodomain-containing protein 4; test: PROTAC activity at SPOP/BRD4-S in human HT-29 cells assessed as induction of BRD4 short isoform degradation by measuring fold change at 0.313 uM incubated for 24 hrs by Western blotting analysis (reference value: 1.00); assay type: cell-based
[23] = molecular target: T4, Speckle-type POZ protein-Bromodomain-containing protein 3 (Homo sapiens); test: PROTAC activity at SPOP/BRD3 in human HT-29 cells assessed as induction of BRD3 degradation at 5 uM measured after >=48 hrs by Western blot analysis; assay type: cell-based
[24] = molecular target: T1, Speckle-type POZ protein-Bromodomain-containing protein 4; test: PROTAC activity at SPOP/BRD4-L in human MDA-MB-231 cells assessed as induction of BRD4 long isoform degradation at 0.1 to 5 uM incubated for 24 hrs by Western blotting analysis; assay type: cell-based; conditions: dose 0.1-5 µM
[25] = molecular target: T1, Speckle-type POZ protein-Bromodomain-containing protein 4; test: PROTAC activity at SPOP/BRD4-S in human HT-29 cells assessed as induction of BRD4 short isoform degradation by measuring fold change at 5 uM incubated for 24 hrs by Western blotting analysis (reference value: 1.00); assay type: cell-based
PNT2 = test: Cytotoxicity against human PNT2 assessed as reduction in cell growth at 0.021 to 10 uM incubated for 72 hrs by WST-8 reagent based assay; assay type: toxicity; conditions: pnt2, 72 h, dose 0.021-10 µM
[26] = molecular target: T1, Speckle-type POZ protein-Bromodomain-containing protein 4; test: PROTAC activity at SPOP/BRD4-L in human HT-29 cells assessed as induction of BRD4 long isoform degradation at 5 uM measured after >=48 hrs by Western blotting analysis; assay type: cell-based
HT-29 [27] = test: Downregulation of c-MYC mRNA level in human HT-29 cells at 5 to 10 uM incubated for 24 hrs by RT-qPCR analysis; assay type: functional, cell-based; conditions: dose 5-10 µM

T3 sequence (O43791 whole entry, looked up): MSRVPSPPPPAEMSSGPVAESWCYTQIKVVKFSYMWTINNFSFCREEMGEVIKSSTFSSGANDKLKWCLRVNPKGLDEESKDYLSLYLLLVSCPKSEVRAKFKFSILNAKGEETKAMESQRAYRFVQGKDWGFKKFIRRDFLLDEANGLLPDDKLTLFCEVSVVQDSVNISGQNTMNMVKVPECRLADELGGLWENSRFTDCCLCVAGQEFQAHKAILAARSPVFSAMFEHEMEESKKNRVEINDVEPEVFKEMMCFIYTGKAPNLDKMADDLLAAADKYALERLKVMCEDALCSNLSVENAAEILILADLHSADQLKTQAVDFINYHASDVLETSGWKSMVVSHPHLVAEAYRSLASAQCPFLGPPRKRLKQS
T3 sequence (P25440 whole entry, looked up): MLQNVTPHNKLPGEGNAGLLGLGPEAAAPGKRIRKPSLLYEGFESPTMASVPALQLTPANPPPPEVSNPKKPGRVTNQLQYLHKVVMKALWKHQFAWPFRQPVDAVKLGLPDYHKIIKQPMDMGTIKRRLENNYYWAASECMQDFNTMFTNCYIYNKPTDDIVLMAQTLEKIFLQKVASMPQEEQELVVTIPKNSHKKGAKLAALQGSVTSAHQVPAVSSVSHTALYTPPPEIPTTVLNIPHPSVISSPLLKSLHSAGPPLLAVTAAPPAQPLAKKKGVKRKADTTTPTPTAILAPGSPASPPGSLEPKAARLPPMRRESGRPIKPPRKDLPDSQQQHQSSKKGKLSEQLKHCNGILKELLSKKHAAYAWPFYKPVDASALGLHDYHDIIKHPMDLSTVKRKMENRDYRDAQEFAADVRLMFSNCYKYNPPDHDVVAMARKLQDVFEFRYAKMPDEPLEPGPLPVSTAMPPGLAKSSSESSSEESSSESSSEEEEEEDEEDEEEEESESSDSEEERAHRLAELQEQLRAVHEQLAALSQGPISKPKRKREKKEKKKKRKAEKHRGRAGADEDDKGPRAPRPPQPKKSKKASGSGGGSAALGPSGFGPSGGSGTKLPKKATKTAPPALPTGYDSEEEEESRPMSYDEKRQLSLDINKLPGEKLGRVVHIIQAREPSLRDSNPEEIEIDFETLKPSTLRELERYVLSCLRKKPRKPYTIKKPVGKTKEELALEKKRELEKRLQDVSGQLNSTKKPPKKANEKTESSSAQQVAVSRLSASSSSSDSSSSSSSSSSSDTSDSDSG
T1 sequence (O43791 whole entry, looked up, other chains not shown, canonical isoform): as the sequence (O43791 whole entry, looked up) above
T4 sequence (O43791 whole entry, looked up): as above
T4 sequence (Q15059 whole entry, looked up): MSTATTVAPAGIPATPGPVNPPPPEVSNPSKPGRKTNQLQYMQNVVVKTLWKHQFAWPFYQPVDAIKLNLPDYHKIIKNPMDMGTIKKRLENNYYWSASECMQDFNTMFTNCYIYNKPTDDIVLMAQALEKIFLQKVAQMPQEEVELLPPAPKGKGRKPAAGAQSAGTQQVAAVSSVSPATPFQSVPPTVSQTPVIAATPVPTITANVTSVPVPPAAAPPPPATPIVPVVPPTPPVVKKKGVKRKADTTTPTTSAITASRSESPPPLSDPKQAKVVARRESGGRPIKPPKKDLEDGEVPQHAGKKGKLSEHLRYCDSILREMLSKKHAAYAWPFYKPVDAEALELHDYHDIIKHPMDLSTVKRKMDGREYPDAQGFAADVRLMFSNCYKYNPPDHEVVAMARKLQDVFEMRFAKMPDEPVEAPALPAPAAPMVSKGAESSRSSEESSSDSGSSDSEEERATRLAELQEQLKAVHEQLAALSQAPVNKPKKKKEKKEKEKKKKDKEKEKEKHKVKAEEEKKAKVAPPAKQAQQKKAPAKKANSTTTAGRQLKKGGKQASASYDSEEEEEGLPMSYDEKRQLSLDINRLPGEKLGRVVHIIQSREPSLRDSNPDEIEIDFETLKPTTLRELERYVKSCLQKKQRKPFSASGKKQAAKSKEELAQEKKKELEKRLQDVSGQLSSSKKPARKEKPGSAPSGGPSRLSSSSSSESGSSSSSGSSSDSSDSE

Activity [2]: inactive
inhibition [3]: 100%
fold change (FC) [4]: 0.7
fold change (FC) [5]: 1.1
fold change (FC) [6]: 0.4
fold change (FC) [7]: 0.03
fold change (FC) [8]: 0.3
Activity [9]: Active
fold change (FC) [11]: 0.5
GI50 (HT-29 [12]; HT-29, 72 h, time 3 day): 4.5 µM
fold change (FC) [13]: 0.5
fold change (FC) [14]: 1
Activity [15]: inactive
Activity [16]: Active
fold change (FC) [17]: 0.7
fold change (FC) [18]: 1.2
Activity [19]: > 50%
fold change (FC) [20]: 0.9
inhibition [21]: Active
fold change (FC) [22]: 1.2
Activity [23]: Active
Activity [24]: Active
fold change (FC) [25]: 0.4
Activity [26]: Active
Structure (SMILES): COc1cc2c(NC3CCN(CCCC(=O)NCCCCCCCCCCNC(=O)C[C@@H]4N=C(c5ccc(Cl)cc5)c5c(sc(C)c5C)-n5c(C)nnc54)CC3)cc(N3CCOCC3)nc2cc1OCCCN1CCCC1
Activity (HT-29 [1]): inactive
Activity (HT-29 [10]): Active
Activity (HT-29 [12]; time 3.0 day): Dose-dependent-effect
Activity (PNT2): Non-toxic
Activity (HT-29 [27]): Active
